System: CD14/CD16+ blood macrophages from normal (uninfected) patients
Assay: Susceptibility assay: killing of CD14/CD16+ blood macrophages from normal patients
Type: cell-based, human
Settings: FIG. 4, ex vivo
Protocol: The following procedures/protocols were used in some of the examples that follow. All steps were performed in a biological safety cabinet using Universal Precautions for handling human blood samples and standard aseptic techniques.
The PBMC for the susceptibility assays was prepared in accordance with the following procedures. A cell culture medium was prepared by mixing RPMI+10% FBS+1% sodium pyruvate and filter sterilized using a filter unit with 0.22 micron pore size. The cell pellet was then resuspended in 3 ml of the cell culture medium. The suspension was gently mixed by slowly pipetting up and down 3 times. The cells were counted using a hemacytometer and the cell density was adjusted to 1×10^6 cells/mL in the cell culture medium, followed by mixing by slowly pipetting up and down 3 times. The cells were incubated in a 50 mL sterile polypropylene tube, at 37° C. and 5% CO2 for 1-2 days. […]
Fluorescence emission measurements were obtained with a flow cytometer, using the following instrument settings in BD FACSCAN: 1) Detector: FL1=533 amps; FL2=570 amps; and FL3=550 amps; 2) Threshold=FSC 180; 3) Compensation: FL1 10.5% FL2; FL2 26.1% FL1; FL2 8.3% FL3; FL3 25.4% FL2; 4) Count=50,000 UNgated events.
The ability of polyamine analogs MGBG and CG47 to kill CD14/CD16+ blood macrophages in HIV infected and normal patients was measured. […]

## CCNCCCNC/C=C\CNCCCNCC.Cl.Cl.Cl.Cl [CG47, N,N′-bis(3-ethylaminopropyl)-cis-but-2-ene-1,4-diamine tetrahydrochloride]
  sensitivity of CD14/CD16+ macrophages from the normal patient: essentially unaffected

— patent US7879914B2, “Methods for treating viral infections using polyamine analogs” (Pathlogica LLC, priority 2005, dated 2011)
